Patent publication US20230340011A1 (Asteroid Therapeutics, priority 2022, published 2023)

Target: SREBP-2 (Homo sapiens (Human), UniProt Q12772)
Assay: In vitro assay SREBP-2: PathHunter U2OS SREBP-2 Nuclear Translocation Cell Line, U18666A-stimulated
Assay type: cell-based
Conditions: PathHunter U2OS SREBP-2 nuclear translocation cells, U18666A 10 μM, overnight (16 hours)

SMILES	IC50
C[C@H](CCC(=O)N1CC[C@H](CO)O1)[C@H]1CC[C@H]2[C@@H]3CC=C4C[C@@H](O)CC[C@]4(C)[C@H]3CC[C@]12C [Example 43, (R)-4-((3S,8S,9S,10R,13R,14S,17R)-3-hydroxy-10,13-dimethyl-2,3,4,7,8,9,10,11,12,13,14,15,16,17-tetradecahydro-1H-cyclopenta[a]phenanthren-17-yl)-1-((R)-5-(hydroxymethyl)isoxazolidin-2-yl)pentan-1-one]	250 to 1000 nM
CNC(=O)c1ccnc(OC[C@@H](C)[C@H]2CC[C@H]3[C@@H]4CC=C5C[C@@H](O)CC[C@]5(C)[C@H]4CC[C@]23C)c1 [Example 254, 2-((S)-2-((3S,8S,9S,10R,13S,14S,17R)-3-hydroxy-10,13-dimethyl-2,3,4,7,8,9,10,11,12,13,14,15,16,17-tetradecahydro-1H-cyclopenta[a]phenanthren-17-yl)propoxy)-N-methylisonicotinamide]	< 250 nM
Cc1cccnc1OC[C@@H](C)[C@H]1CC[C@H]2[C@@H]3CC=C4C[C@@H](O)CC[C@]4(C)[C@H]3CC[C@]12C [Example 443, (3S,8S,9S,10R,13S,14S,17R)-10,13-dimethyl-17-((S)-1-((3-methylpyridin-2-yl)oxy)propan-2-yl)-2,3,4,7,8,9,10,11,12,13,14,15,16,17-tetradecahydro-1H-cyclopenta[a]phenanthren-3-ol]	< 250 nM
C[C@H](Oc1cncc(CO)c1)[C@H]1CC[C@H]2[C@@H]3CC=C4C[C@@H](O)CC[C@]4(C)[C@H]3CC[C@]12C [Example 436, (3S,8S,9S,10R,13S,14S,17S)-17-((S)-1-((5-(hydroxymethyl)pyridin-3-yl)oxy)ethyl)-10,13-dim ethyl-2,3,4,7,8,9,10,11,12,13,14,15,16,17-tetradecahydro-1H-cyclopenta[a]phenanthren-3-ol]	250 to 1000 nM
Cc1cccnc1CC[C@@H](C)[C@H]1CC[C@H]2[C@@H]3CC=C4C[C@@H](O)CC[C@]4(C)[C@H]3CC[C@]12C [Example 130, (3S,8S,9S,10R,13R,14S,17R)-10,13-dimethyl-17-((R)-4-(3-methylpyridin-2-yl)butan-2-yl)-2,3,4,7,8,9,10,11,12,13,14,15,16,17-tetradecahydro-1H-cyclopenta[a]phenanthren-3-ol]	< 250 nM
C[C@H](CCC(=O)N1CCC[C@@H](Oc2cnn(C)c2)C1)[C@H]1CC[C@H]2[C@@H]3CC=C4C[C@@H](O)CC[C@]4(C)[C@H]3CC[C@]12C [Example 518, (4R)-4-[(1R,3aS,3bS,7S,9aR,9bS,11aR)-7-hydroxy-9a,11a-dimethyl-1H,2H,3H,3aH,3bH,4H,6H,7H,8H,9H,9aH,9bH,10H,11H,11aH-cyclopenta[a]phenanthren-1-yl]-1-[(3R)-3-[(1-methyl-1H-pyrazol-4-yl)oxy]piperidin-1-yl]pentan-1-one]	< 250 nM
CON(C(=O)CC[C@@H](C)[C@H]1CC[C@H]2[C@@H]3CC=C4C[C@@H](O)CC[C@]4(C)[C@H]3CC[C@]12C)C1CC1 [Example 36, (R)—N-cyclopropyl-4-((3S,8S,9S,10R,13R,14S,17R)-3-hydroxy-10,13-dimethyl-2,3,4,7,8,9,10,11,12,13,14,15,16,17-tetradecahydro-1H-cyclopenta[a]phenanthren-17-yl)-N-methoxypentanamide]	250 to 1000 nM
CNC(=O)c1ccc(O[C@@H](C)[C@H]2CC[C@H]3[C@@H]4CC=C5C[C@@H](O)CC[C@]5(C)[C@H]4CC[C@]23C)cn1 [Example 438, 5-((S)-1-((3S,8S,9S,10R,13S,14S,17S)-3-hydroxy-10,13-dimethyl-2,3,4,7,8,9,10,11,12,13,14,15,16,17-tetradecahydro-1H-cyclopenta[a]phenanthren-17-yl)ethoxy)-N-methylpicolinamide]	250 to 1000 nM
COC(=O)NC[C@@H](C)[C@H]1CC[C@H]2[C@@H]3CC=C4C[C@@H](O)CC[C@]4(C)[C@H]3CC[C@]12C [Example 240, Methyl ((S)-2-((3S,8S,9S,10R,13S,14S,17R)-3-hydroxy-10,13-dimethyl-2,3,4,7,8,9,10,11,12,13,14,15,16,17-tetradecahydro-1H-cyclopenta[a]phenanthren-17-yl)propyl)carbamate]	250 to 1000 nM
